# From US4178442A, “Novel cinnamoyles piperazines and homopiperazines, the method of preparing them and their application in therapeutics” (Delalande S. A., priority 1977, dated 1979)
# Where two headings read alike, the source gives them in different places.
# Legend:
# anaesthetized dog = test: Antiangorous activity on anaesthetized dog: consumption of oxygen in the left ventricule and cardiac effort (KATZ's index); type: in vivo; conditions: for inhibition in vivo at 2.3 mg/kg / inhibition in vivo at 2.5 mg/kg / inhibition in vivo at 1.25 mg/kg / inhibition in vivo at 0.6 mg/kg / inhibition in vivo at 0.54 mg/kg / inhibition in vivo at 2.4 mg/kg: Canis lupus familiaris, iv
# Procedure: The antiangorous activity was tested on an anaesthetized dog (sodium pentobarbital 30 mg/kg/i.v.).
# The consumption of oxygen in the left ventricule was estimated by the product of the coronary venous flow and the coronary arteriovenous difference in oxygen (% volume).
# The coronary venous flow was measured at the coronary venous sinus by means of a modified Morawitz cannula, introduced under radioscopic control.
# The cardiac effort was estimated according to KATZ's index, by the product of the average arterial pressure and the cardiac frequency.
# The cardiac frequency was estimated from the electrocardiogram recorded with D2 derivation.
# It should be noted that the compounds tested were injected intravenously with slow perfusion.
# in vivo = conditions: iv; for LD50: read-out: Toxicity: LD50; for mortality: read-out: Toxicity (Mortality)
# Source text: *LD50 or percentage of mortality which is given between brackets
# [1] = 2.3 mg/kg i.v. slow perfusion, read-out: Diminution in consumption of O2
# [2] = 2.3 mg/kg i.v. slow perfusion, read-out: Diminution in the cardiac effort (IK)
# [3] = 2.5 mg/kg i.v. slow perfusion, read-out: Diminution in consumption of O2
# [4] = 2.5 mg/kg i.v. slow perfusion, read-out: Diminution in the cardiac effort (IK)
# [5] = 1.25 mg/kg i.v. slow perfusion, read-out: Diminution in consumption of O2
# [6] = 1.25 mg/kg i.v. slow perfusion, read-out: Diminution in the cardiac effort (IK)
compound,measurement,setting,value
COc1cc(/C=C/C(=O)N2CCN(CC(O)COc3ccc4c(c3)OCO4)CC2)cc(OC)c1OC (stereo not drawn) [760 529],Diminution in consumption of O2: in time,anaesthetized dog; 2.3 mg/kg i.v. slow perfusion,30 min
same,Diminution in the cardiac effort (IK): in time,anaesthetized dog; 2.3 mg/kg i.v. slow perfusion,15 min
same,inhibition in vivo at 2.3 mg/kg,anaesthetized dog; [1],53%
same,inhibition in vivo at 2.3 mg/kg,anaesthetized dog; [2],19%
same,LD50,in vivo,115 mg/kg
COc1cc(/C=C/C(=O)N2CCN(CC(O)COc3ccc([N+](=O)[O-])cc3)CC2)cc(OC)c1OC (stereo not drawn) [760 538],Diminution in consumption of O2: in time,anaesthetized dog; 2.3 mg/kg i.v. slow perfusion,15 min
same,Diminution in the cardiac effort (IK): in time,anaesthetized dog; 2.3 mg/kg i.v. slow perfusion,30 min
same,inhibition in vivo at 2.3 mg/kg,anaesthetized dog; [1],48%
same,inhibition in vivo at 2.3 mg/kg,anaesthetized dog; [2],37%
same,mortality,in vivo; 185 mg/kg i.v.,10%
COc1cc(/C=C/C(=O)N2CCN(CC(O)COc3ccc(NC(C)=O)cc3)CC2)cc(OC)c1OC (stereo not drawn) [760 542],Diminution in consumption of O2: in time,anaesthetized dog; 2.5 mg/kg i.v. slow perfusion,45 min
same,Diminution in the cardiac effort (IK): in time,anaesthetized dog; 2.5 mg/kg i.v. slow perfusion,50 min
same,inhibition in vivo at 2.5 mg/kg,anaesthetized dog; [3],64%
same,inhibition in vivo at 2.5 mg/kg,anaesthetized dog; [4],32%
same,mortality,in vivo; 400 mg/kg i.v.,0%
COc1cc(/C=C/C(=O)N2CCN(CC(O)COc3c(OC)cccc3OC)CC2)cc(OC)c1OC (stereo not drawn) [760 580],Diminution in consumption of O2: in time,anaesthetized dog; 2.3 mg/kg i.v. slow perfusion,30 min
same,Diminution in the cardiac effort (IK): in time,anaesthetized dog; 2.3 mg/kg i.v. slow perfusion,15 min
same,inhibition in vivo at 2.3 mg/kg,anaesthetized dog; [1],19%
same,inhibition in vivo at 2.3 mg/kg,anaesthetized dog; [2],26%
same,LD50,in vivo,294 mg/kg
COc1cc(/C=C/C(=O)N2CCN(CC(O)COc3ccccc3F)CC2)cc(OC)c1OC (stereo not drawn) [760 619],Diminution in consumption of O2: in time,anaesthetized dog; 2.3 mg/kg i.v. slow perfusion,30 min
same,Diminution in the cardiac effort (IK): in time,anaesthetized dog; 2.3 mg/kg i.v. slow perfusion,30 min
same,inhibition in vivo at 2.3 mg/kg,anaesthetized dog; [1],55%
same,inhibition in vivo at 2.3 mg/kg,anaesthetized dog; [2],44%
same,LD50,in vivo,158 mg/kg
COc1cc(OC)cc(OCC(O)CN2CCN(C(=O)/C=C/c3cc(OC)c(OC)c(OC)c3)CC2)c1 (stereo not drawn) [760 620],Diminution in consumption of O2: in time,anaesthetized dog; 2.5 mg/kg i.v. slow perfusion,30 min
same,Diminution in the cardiac effort (IK): in time,anaesthetized dog; 2.5 mg/kg i.v. slow perfusion,30 min
same,inhibition in vivo at 2.5 mg/kg,anaesthetized dog; [3],22%
same,inhibition in vivo at 2.5 mg/kg,anaesthetized dog; [4],10%
same,LD50,in vivo,285 mg/kg
COc1cc(/C=C/C(=O)N2CCCN(CC(O)COc3ccc(C(C)=O)c4c3OCCO4)CC2)cc(OC)c1OC (stereo not drawn) [760 622],Diminution in consumption of O2: in time,anaesthetized dog; 1.25 mg/kg i.v. slow perfusion,30 min
same,Diminution in the cardiac effort (IK): in time,anaesthetized dog; 1.25 mg/kg i.v. slow perfusion,15 min
same,inhibition in vivo at 1.25 mg/kg,anaesthetized dog; [5],20%
same,inhibition in vivo at 1.25 mg/kg,anaesthetized dog; [6],17%
same,mortality,in vivo; 400 mg/kg i.v.,40%
CCOC(=O)c1ccc(OCC(O)CN2CCN(C(=O)/C=C/c3cc(OC)c(OC)c(OC)c3)CC2)c2c1OCCO2 (stereo not drawn) [760 700],Diminution in consumption of O2: in time,anaesthetized dog; 0.6 mg/kg i.v. slow perfusion,45 min
same,Diminution in the cardiac effort (IK): in time,anaesthetized dog; 0.6 mg/kg i.v. slow perfusion,60 min
same,inhibition in vivo at 0.6 mg/kg,"anaesthetized dog; 0.6 mg/kg i.v. slow perfusion, read-out: Diminution in consumption of O2",59%
same,inhibition in vivo at 0.6 mg/kg,"anaesthetized dog; 0.6 mg/kg i.v. slow perfusion, read-out: Diminution in the cardiac effort (IK)",47%
same,mortality,in vivo; 367 mg/kg i.v.,0%
COc1cc(/C=C/C(=O)N2CCN(CC(O)COc3ccc(CO)c4c3OCCO4)CC2)cc(OC)c1OC (stereo not drawn) [760 705],Diminution in consumption of O2: in time,anaesthetized dog; 1.25 mg/kg i.v. slow perfusion,38 min
same,Diminution in the cardiac effort (IK): in time,anaesthetized dog; 1.25 mg/kg i.v. slow perfusion,75 min
same,inhibition in vivo at 1.25 mg/kg,anaesthetized dog; [5],51%
same,inhibition in vivo at 1.25 mg/kg,anaesthetized dog; [6],26%
same,mortality,in vivo; 400 mg/kg i.v.,20%
CNC(=O)c1ccc(OCC(O)CN2CCN(C(=O)/C=C/c3cc(OC)c(OC)c(OC)c3)CC2)c2c1OCCO2 (stereo not drawn) [760 710],Diminution in consumption of O2: in time,anaesthetized dog; 0.54 mg/kg i.v. slow perfusion,60 min
same,Diminution in the cardiac effort (IK): in time,anaesthetized dog; 0.54 mg/kg i.v. slow perfusion,30 min
same,inhibition in vivo at 0.54 mg/kg,"anaesthetized dog; 0.54 mg/kg i.v. slow perfusion, read-out: Diminution in consumption of O2",64%
same,inhibition in vivo at 0.54 mg/kg,"anaesthetized dog; 0.54 mg/kg i.v. slow perfusion, read-out: Diminution in the cardiac effort (IK)",36%
same,mortality,in vivo; 345 mg/kg i.v.,70%
COc1cc(/C=C/C(=O)N2CCN(CC(O)COc3cc(OC)c(OC)c(OC)c3C(C)=O)CC2)cc(OC)c1OC (stereo not drawn) [760 781],Diminution in consumption of O2: in time,anaesthetized dog; 2.4 mg/kg i.v. slow perfusion,90 min
same,Diminution in the cardiac effort (IK): in time,anaesthetized dog; 2.4 mg/kg i.v. slow perfusion,45 min
same,inhibition in vivo at 2.4 mg/kg,"anaesthetized dog; 2.4 mg/kg i.v. slow perfusion, read-out: Diminution in consumption of O2",70%
same,inhibition in vivo at 2.4 mg/kg,"anaesthetized dog; 2.4 mg/kg i.v. slow perfusion, read-out: Diminution in the cardiac effort (IK)",15%
same,mortality,in vivo; 377 mg/kg i.v.,0%
COc1cc(/C=C/C(=O)N2CCN(CC(O)COc3cccc(C#N)c3)CC2)cc(OC)c1OC (stereo not drawn) [760 784],Diminution in consumption of O2: in time,anaesthetized dog; 2.3 mg/kg i.v. slow perfusion,30 min
same,Diminution in the cardiac effort (IK): in time,anaesthetized dog; 2.3 mg/kg i.v. slow perfusion,30 min
same,inhibition in vivo at 2.3 mg/kg,anaesthetized dog; [1],44%
same,inhibition in vivo at 2.3 mg/kg,anaesthetized dog; [2],12%
same,LD50,in vivo,372 mg/kg
